Assays:
[1] = target: Angiotensin-converting enzyme (Homo sapiens, UniProt P12821); experiment: Inhibition of angiotensin-converting enzyme in whole blood by HPLC; type: tissue-based
[2] = target: T1, Leukotriene A-4 hydrolase (Cavia porcellus, UniProt P19602); experiment: Inhibition of LTA4 hydrolase in guinea pig lung assessed as inhibition of LTB4 production
T1 sequence (P19602 whole entry): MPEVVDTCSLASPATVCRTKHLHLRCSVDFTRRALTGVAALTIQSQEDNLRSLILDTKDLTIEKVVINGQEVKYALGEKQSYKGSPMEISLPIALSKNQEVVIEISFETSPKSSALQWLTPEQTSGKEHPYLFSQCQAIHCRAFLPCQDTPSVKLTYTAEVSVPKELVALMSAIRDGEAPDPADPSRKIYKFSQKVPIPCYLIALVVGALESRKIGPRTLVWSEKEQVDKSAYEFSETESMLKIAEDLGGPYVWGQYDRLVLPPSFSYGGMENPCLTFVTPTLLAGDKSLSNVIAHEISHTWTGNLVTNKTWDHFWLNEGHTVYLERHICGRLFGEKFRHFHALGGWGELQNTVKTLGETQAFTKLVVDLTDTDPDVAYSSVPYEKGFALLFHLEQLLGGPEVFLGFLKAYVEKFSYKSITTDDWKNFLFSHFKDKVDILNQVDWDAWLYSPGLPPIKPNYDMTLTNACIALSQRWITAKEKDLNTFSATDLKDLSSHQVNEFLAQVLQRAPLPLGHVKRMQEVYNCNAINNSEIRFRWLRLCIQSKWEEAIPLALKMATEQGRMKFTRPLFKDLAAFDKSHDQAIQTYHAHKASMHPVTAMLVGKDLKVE

[3] = target: T2, Endothelin-converting enzyme 1 (Homo sapiens) (UniProt P42892); experiment: Inhibition of endothelin-converting enzyme 1 at 100 uM
T2 sequence (whole entry): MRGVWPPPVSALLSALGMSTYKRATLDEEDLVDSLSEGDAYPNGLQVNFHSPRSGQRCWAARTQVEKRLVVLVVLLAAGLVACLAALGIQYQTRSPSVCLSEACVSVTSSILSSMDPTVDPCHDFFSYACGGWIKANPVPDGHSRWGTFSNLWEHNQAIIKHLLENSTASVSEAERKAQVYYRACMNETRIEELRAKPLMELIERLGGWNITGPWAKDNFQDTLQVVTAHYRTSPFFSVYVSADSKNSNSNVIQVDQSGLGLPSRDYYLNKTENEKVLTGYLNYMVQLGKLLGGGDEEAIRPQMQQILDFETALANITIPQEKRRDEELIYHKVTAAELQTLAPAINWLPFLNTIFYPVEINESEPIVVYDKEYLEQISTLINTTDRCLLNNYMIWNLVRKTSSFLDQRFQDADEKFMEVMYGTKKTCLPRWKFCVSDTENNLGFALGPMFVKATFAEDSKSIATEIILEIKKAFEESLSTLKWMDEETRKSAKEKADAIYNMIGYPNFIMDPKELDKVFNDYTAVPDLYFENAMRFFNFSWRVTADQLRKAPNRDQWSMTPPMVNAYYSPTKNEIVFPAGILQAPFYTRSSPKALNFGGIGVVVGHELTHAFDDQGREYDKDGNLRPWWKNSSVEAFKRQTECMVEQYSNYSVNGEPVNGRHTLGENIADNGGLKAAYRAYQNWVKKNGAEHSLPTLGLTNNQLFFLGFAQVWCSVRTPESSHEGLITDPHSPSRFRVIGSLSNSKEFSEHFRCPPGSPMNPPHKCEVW

[4] = target: T3, Interstitial collagenase (Homo sapiens) (UniProt P03956); experiment: Inhibition of type 1 collagenase at 100 uM
T3 sequence (whole entry): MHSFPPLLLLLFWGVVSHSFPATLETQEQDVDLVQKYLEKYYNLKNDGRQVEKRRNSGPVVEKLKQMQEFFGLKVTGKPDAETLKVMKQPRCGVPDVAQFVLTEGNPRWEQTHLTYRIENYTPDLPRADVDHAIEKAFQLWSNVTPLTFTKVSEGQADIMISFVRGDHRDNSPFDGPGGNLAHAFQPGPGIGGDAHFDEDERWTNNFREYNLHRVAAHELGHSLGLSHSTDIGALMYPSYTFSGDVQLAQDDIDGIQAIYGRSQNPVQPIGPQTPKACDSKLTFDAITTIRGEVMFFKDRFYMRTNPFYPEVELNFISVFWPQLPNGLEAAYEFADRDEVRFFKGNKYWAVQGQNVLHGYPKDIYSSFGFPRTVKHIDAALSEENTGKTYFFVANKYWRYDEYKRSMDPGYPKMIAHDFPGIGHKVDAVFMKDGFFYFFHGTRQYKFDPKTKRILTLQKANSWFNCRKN

[5] = target: Aminopeptidase N (Homo sapiens) (UniProt P15144); experiment: Inhibition of aminopeptidase M at 100 uM
Aminopeptidase N (Homo sapiens), sequence (P15144 whole entry): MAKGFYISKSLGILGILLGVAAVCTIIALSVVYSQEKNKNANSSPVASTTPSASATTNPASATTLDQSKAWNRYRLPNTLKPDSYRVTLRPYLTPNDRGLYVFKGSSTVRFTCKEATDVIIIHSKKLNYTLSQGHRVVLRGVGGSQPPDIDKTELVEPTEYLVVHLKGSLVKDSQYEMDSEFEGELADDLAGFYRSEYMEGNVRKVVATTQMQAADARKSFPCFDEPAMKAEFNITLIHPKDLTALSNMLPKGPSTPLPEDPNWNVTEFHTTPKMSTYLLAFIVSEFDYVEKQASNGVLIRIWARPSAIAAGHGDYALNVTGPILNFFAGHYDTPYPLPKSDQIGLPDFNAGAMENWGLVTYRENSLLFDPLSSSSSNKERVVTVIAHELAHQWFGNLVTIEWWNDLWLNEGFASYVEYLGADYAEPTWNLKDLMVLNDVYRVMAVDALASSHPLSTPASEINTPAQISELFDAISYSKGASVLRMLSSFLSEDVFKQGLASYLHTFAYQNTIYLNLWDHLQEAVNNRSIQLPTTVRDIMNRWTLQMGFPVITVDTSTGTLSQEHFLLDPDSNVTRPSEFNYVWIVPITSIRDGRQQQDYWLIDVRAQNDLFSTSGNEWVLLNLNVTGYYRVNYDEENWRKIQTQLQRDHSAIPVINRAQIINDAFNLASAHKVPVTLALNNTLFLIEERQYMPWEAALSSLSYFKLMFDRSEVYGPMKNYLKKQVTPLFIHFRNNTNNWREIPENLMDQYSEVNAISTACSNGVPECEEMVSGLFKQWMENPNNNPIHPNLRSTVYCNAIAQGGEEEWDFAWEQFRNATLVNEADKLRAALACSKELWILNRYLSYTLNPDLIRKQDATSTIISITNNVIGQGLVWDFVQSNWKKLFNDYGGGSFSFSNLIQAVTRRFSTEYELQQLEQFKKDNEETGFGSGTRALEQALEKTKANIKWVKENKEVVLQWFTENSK

[6] = target: Collagenase 3 (Homo sapiens, UniProt P45452); experiment: Inhibition of type 3 collagenase
[7] = target: Neprilysin (Homo sapiens) (UniProt P08473); experiment: Inhibition of endopeptidase 24.11 at 100 uM
Neprilysin (Homo sapiens), sequence (P08473 whole entry): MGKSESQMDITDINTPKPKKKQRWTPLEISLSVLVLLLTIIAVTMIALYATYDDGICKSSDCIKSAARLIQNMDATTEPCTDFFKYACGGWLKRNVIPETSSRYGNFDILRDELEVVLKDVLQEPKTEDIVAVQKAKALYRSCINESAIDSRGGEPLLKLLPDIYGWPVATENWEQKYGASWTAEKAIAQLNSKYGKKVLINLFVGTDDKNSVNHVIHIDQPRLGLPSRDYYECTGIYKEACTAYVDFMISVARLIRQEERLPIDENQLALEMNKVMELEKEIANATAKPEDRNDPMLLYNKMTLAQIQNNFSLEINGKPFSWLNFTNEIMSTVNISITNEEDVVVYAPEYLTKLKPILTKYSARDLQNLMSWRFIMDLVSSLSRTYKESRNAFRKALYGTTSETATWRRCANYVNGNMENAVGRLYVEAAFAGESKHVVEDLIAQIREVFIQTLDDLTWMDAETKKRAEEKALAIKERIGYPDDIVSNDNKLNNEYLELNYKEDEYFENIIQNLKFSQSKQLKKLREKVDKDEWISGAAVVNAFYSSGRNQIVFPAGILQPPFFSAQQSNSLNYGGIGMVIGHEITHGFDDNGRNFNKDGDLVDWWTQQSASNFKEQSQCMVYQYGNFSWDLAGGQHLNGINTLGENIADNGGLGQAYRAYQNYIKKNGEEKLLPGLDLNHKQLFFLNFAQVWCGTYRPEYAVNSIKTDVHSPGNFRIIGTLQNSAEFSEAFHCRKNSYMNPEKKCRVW

Angiotensin-converting enzyme, sequence (P12821 whole entry): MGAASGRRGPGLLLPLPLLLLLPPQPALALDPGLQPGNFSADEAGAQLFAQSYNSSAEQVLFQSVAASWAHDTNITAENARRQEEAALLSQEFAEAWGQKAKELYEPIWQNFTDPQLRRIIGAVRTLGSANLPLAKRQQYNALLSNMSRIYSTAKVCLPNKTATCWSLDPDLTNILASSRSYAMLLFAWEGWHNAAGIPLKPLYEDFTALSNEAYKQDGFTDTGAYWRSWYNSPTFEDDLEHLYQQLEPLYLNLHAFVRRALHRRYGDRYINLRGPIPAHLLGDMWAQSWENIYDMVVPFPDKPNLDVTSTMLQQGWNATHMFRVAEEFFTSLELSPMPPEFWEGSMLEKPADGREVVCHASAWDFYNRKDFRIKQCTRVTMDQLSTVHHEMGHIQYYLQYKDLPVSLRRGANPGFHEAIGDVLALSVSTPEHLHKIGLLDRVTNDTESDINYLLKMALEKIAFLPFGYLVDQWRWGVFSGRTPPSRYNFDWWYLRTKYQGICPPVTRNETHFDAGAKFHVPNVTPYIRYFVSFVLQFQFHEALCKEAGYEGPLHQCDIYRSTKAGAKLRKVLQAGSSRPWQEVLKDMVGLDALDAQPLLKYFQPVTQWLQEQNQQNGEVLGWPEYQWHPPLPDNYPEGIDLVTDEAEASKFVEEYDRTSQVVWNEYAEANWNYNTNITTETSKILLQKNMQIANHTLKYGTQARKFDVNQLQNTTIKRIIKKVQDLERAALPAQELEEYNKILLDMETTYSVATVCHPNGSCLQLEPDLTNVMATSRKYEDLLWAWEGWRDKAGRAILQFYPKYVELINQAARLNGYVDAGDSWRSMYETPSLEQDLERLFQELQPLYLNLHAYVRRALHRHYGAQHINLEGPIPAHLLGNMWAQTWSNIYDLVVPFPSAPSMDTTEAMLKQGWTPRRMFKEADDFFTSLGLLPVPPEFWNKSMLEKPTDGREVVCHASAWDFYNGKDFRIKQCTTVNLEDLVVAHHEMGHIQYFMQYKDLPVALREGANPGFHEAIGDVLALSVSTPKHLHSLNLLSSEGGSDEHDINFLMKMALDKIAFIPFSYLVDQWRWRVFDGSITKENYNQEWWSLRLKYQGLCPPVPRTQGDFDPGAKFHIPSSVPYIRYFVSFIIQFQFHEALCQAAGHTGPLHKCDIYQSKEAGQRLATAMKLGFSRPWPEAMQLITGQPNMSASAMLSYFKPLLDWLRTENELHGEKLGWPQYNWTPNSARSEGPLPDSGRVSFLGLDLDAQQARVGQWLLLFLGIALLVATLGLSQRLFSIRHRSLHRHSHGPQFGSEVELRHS

SMILES | IC50 [1] | IC50 ([2]; read-out: IC50) | IC50 ([2]; read-out: pIC50 (converted)) | other results
CSc1ccc(CSC[C@H](NC(=O)[C@H](C)CS)C(=O)O)cc1 | 300 nM |  |  | 
C[C@H](CS)C(=O)N[C@@H](CSCc1ccc([N+](=O)[O-])cc1)C(=O)O | 320 nM | 4900 nM |  | 
C[C@H](CS)C(=O)N[C@@H](CSCc1ccc(N(C)C)cc1)C(=O)O | 520 nM | 270 nM | 270 nM | inhibition [3]: 8%; inhibition [4]: 3%; inhibition [5]: 42%; IC50 [6]: Not Active; inhibition [7]: 16%
C[C@H](CS)C(=O)N[C@H](CSCc1ccc(N(C)C)cc1)C(=O)O |  | > 10000 nM |  | 
Cc1ccc(CSC[C@H](NC(=O)[C@H](C)CS)C(=O)O)cc1 | 240 nM | 7200 nM | 7200 nM | 
CCc1ccc(CSC[C@H](NC(=O)[C@H](C)CS)C(=O)O)cc1 | 21 nM |  | 280 nM | 
C[C@H](CS)C(=O)N[C@@H](CSCc1cccc(N(C)C)c1)C(=O)O |  | > 10000 nM |  | 
CCOc1ccc(CSC[C@H](NC(=O)[C@H](C)CS)C(=O)O)cc1 | 340 nM | 640 nM | 640 nM | 
CN(C)c1ccc(CSC[C@H](NC(=O)CS)C(=O)O)cc1 |  | 470 nM |  | 
C[C@H](CS)C(=O)N[C@@H](CSCc1ccc(-c2ccccc2)cc1)C(=O)O | 280 nM | 600 nM | 79.4 nM | 
CCCc1ccc(CSC[C@H](NC(=O)[C@H](C)CS)C(=O)O)cc1 | 210 nM |  | 72 nM | 
CC(C)c1ccc(C(SC[C@H](NC(=O)[C@H](C)CS)C(=O)O)c2ccccc2)cc1 (stereo partly drawn) | 1700 nM | 91 nM |  | 
C[C@H](CS)C(=O)N[C@@H](CSC(c1ccccc1)c1ccc(C2CCCCC2)cc1)C(=O)O (stereo partly drawn) | > 10000 nM | 210 nM |  | 
C[C@H](CS)C(=O)N[C@@H](CSCc1ccc(C#N)cc1)C(=O)O | 300 nM | 530 nM |  | 
CC(C)c1ccc(CSC(C)(C)[C@H](NC(=O)[C@H](C)CS)C(=O)O)cc1 | > 10000 nM | > 10000 nM |  | 
C[C@H](S)C(=O)N[C@@H](CSCc1ccc(N(C)C)cc1)C(=O)O |  | > 10000 nM |  | 
C[C@H](CS)C(=O)N[C@@H](CSCc1ccc(C(C)(C)C)cc1)C(=O)O | 130 nM |  | 24 nM | 
C[C@H](CS)C(=O)N[C@@H](CSCc1ccc(Oc2ccccc2)cc1)C(=O)O | 370 nM | 1700 nM | 1700 nM | 

Now from value to molecule, other results behind:

IC50 [1] | IC50 ([2]; read-out: IC50) | IC50 ([2]; read-out: pIC50 (converted)) | SMILES | other results
250 nM | 1700 nM | 1700 nM | C[C@H](CS)C(=O)N[C@@H](CSCc1ccc(Cl)cc1)C(=O)O | 
260 nM | 400 nM |  | C[C@H](CS)C(=O)N[C@@H](CSCc1ccc(OC(F)(F)F)cc1)C(=O)O | 
300 nM |  |  | C[C@H](CS)C(=O)N[C@@H](CSCc1ccc(S(C)(=O)=O)cc1)C(=O)O | 
34 nM | > 10000 nM |  | C[C@H](CS)C(=O)N[C@@H](CSCc1ccccc1)C(=O)O | 
340 nM |  | 140 nM | C[C@H](CS)C(=O)N[C@@H](CSCc1ccc(C(F)(F)F)cc1)C(=O)O | 
4000 nM |  | 79 nM | C[C@H](CS)C(=O)N[C@@H](CSCc1ccc(C2CCCCC2)cc1)C(=O)O | 
3600 nM | 510 nM |  | CCCCC(SC[C@H](NC(=O)[C@H](C)CS)C(=O)O)c1ccc(C(C)C)cc1 (stereo partly drawn) | 
 | > 10000 nM |  | C[C@@H](S)C(=O)N[C@@H](CSCc1ccc(N(C)C)cc1)C(=O)O | 
340 nM |  |  | CCC(SC[C@H](NC(=O)[C@H](C)CS)C(=O)O)c1ccc(C(C)C)cc1 (stereo partly drawn) | 
430 nM | 520 nM |  | CC(C)c1ccc(C(SC[C@H](NC(=O)[C@H](C)CS)C(=O)O)C(C)C)cc1 (stereo partly drawn) | 
 | > 10000 nM |  | CN(C)c1ccc(CSC[C@H](NC(=O)CCCS)C(=O)O)cc1 | 
300 nM |  | 200 nM | CC(C)c1ccc(CSC[C@H](NC(=O)[C@H](C)CS)C(=O)O)cc1 | 
100 nM | 2400 nM | 2400 nM | COc1ccc(CSC[C@H](NC(=O)[C@H](C)CS)C(=O)O)cc1 | 
100 nM | > 10000 nM | > 10000 nM | C[C@H](CS)C(=O)N[C@@H](CSCc1ccc(F)cc1)C(=O)O | 
420 nM | 180 nM |  | CCCC(SC[C@H](NC(=O)[C@H](C)CS)C(=O)O)c1ccc(C(C)C)cc1 (stereo partly drawn) | 
 | > 10000 nM |  | CN(C)c1ccc(CSC[C@H](NC(=O)CCS)C(=O)O)cc1 | 
200 nM |  |  | CC(C)c1ccc(C(C)SC[C@H](NC(=O)[C@H](C)CS)C(=O)O)cc1 (stereo partly drawn) | 
280 nM | 610 nM | 610 nM | C[C@H](CS)C(=O)N[C@@H](CSCc1ccc(Br)cc1)C(=O)O | 
4600 nM |  |  | CCN(CC)c1ccc(CSC[C@H](NC(=O)[C@H](C)CS)C(=O)O)cc1 | 
 | > 10000 nM |  | C[C@H](CS)C(=O)N[C@@H](CCSCc1ccc(N(C)C)cc1)C(=O)O | 
260 nM | 79 nM |  | CC(C)c1ccc(C(C)(C)SC[C@H](NC(=O)[C@H](C)CS)C(=O)O)cc1 | 
 | 7400 nM |  | CC(S)CC(=O)N[C@@H](CSCc1ccc(N(C)C)cc1)C(=O)O (stereo partly drawn) | 
3000 nM |  |  | C[C@H](CS)C(=O)N[C@@H](CSC(C)(C)c1ccc(C2CCCCC2)cc1)C(=O)O | 
140 nM |  | 15 nM | C[C@H](CS)C(=O)N[C@@H](CSCc1ccc(I)cc1)C(=O)O | 
